From patent US20210228531A1, “TARGETED TREATMENT OF AUTISM SPECTRUM DISORDER AND OTHER NEUROLOGICAL OR PSYCHIATRIC DISORDERS” (Tufts Medical Center, Inc., priority 2018, published 2021)

Assays:
[1] = test system: hnRNP L; conditions: cited from earlier work
[2] = test system: hnRNP L; test: Western Blot analysis of hnRNP L in cultured rat primary cortical neurons; type: cell-based
From the text: Compounds that modify hnRNP L levels are useful for the development of ASD/mental retardation/neurological disorders.

[3] = test system: BIN1; conditions: human osteosarcoma cells (U2OS), proteome analysis; cited from earlier work
[4] = after IP or oral administration; cited from earlier work
[5] = test system: vascular endothelial growth factor (VEGF); conditions: Jeong et al. 2011; cited from earlier work
[6] = test system: glucose transporter 1 (GLUT-1); conditions: Jeong et al. 2011; cited from earlier work
[7] = clinical trials (U.S. Pat. No. 3,995,061); cited from earlier work
[8] = human osteosarcoma cells (U2OS), proteome analysis

Row | Compound | increase in hnRNP L levels [1, 8] [x] | increase in the levels of three proteins, including hnRNP L and BIN1 [1, 8] [fold] | hnRNP L protein levels in vitro ([1]; in vitro (Kang et al. 2006)) | levels of hnRNP L [2] | increase in BIN1 levels [3] [x] | toxicity as assessed by LD50 [4] | expression of VEGF [5] | expression of GLUT-1 [6] | tolerability in clinical trials [7]
1 | CC(/C=C/[C@@]1(C)[C@H](C)CCC(=O)[C@@H]1C)=C\Cc1c(O)c(Cl)c(C)c(C=O)c1O [ascochlorin] | 12 | ≥ 10 | increase hnRNP L protein levels | increased levels of hnRNP L | 10 | – | – | – | –
2 | CCOc1c(Cl)c(C)c(C=O)c(O)c1C/C=C(C)/C=C/C1(C)C(C)CCC(=O)C1C (stereo not shown) [4-O-ethyl-ascochlorin, 4-O-ethylascochlorin] | – | – | – | – | – | low toxicity | – | – | –
3 | COc1c(Cl)c(C)c(C=O)c(O)c1C/C=C(C)/C=C/[C@@]1(C)[C@H](C)CCC(=O)[C@@H]1C [MAC, 4-O-methylascochlorin] | – | – | – | – | – | low toxicity | increases the expression | increases the expression | well tolerated
